Literature values as cited in patent US12326454B2 (Arium BioLabs LLC, priority 2019, dated 2025).

Molecular target: cMET (Homo sapiens, UniProt P08581)
Details: stabilizes the A-loop, auto-inhibited conformation

cMET, sequence (P08581 25-1390): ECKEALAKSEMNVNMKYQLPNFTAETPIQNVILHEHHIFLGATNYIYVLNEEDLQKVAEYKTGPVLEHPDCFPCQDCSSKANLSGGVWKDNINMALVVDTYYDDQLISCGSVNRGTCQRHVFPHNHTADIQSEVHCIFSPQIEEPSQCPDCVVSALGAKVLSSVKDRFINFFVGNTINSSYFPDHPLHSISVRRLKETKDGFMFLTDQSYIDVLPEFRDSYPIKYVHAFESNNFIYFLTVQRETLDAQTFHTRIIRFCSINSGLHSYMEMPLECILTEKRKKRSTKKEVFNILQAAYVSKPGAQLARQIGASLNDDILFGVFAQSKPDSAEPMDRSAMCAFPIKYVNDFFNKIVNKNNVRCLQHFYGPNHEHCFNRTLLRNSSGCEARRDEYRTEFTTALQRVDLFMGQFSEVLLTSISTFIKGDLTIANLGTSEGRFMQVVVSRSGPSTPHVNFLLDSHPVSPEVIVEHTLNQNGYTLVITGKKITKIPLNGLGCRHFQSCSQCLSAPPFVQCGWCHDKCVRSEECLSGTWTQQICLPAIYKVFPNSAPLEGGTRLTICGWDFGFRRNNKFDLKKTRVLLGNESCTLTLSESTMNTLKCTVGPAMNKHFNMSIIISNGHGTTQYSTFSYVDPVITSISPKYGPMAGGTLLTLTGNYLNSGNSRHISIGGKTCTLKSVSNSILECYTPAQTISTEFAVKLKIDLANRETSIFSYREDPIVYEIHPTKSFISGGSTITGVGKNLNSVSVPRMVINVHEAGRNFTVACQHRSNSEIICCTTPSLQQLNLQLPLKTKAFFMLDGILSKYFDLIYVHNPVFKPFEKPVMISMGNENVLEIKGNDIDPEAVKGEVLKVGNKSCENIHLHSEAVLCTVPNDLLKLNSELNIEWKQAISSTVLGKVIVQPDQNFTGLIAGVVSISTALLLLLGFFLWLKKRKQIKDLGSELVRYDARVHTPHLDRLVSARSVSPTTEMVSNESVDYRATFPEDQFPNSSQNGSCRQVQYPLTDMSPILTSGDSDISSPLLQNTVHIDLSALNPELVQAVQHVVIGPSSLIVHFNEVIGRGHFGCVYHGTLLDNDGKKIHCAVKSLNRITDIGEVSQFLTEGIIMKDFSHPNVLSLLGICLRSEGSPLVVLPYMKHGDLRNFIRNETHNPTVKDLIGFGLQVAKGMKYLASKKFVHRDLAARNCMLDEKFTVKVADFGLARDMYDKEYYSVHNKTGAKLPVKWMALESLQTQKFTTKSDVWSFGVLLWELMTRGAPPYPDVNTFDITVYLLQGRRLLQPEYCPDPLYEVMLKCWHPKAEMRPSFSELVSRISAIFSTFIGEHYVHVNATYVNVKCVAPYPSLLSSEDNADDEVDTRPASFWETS

- effect on cMET: selectively inhibits cMET
SMILES: O=C1NC(=O)[C@@H](c2cn3c4c(cccc24)CCC3)[C@@H]1c1c[nH]c2ccccc12 [ARQ197]
